The text below walks through data of patent publication US20090170858A1, “Methods and Compositions Containing Natural Folates for Protecting Against Radiation Damage” (priority 2005, published 2009).

Series [1] in a line: Rose Bengal photosensitization reaction, depletion of 5-MTHF (HPLC). How it is done: Photochemical reactions with Rose Bengal were carried out as follows. Samples in septum-stoppered glass cuvettes were illuminated at a distance of 12 cm by light from a 40 W tungsten lamp passed through a Wratten #16 gelatin filter. Reactions were equilibrated with air or sparged with 100% or 1.8% O2 in argon, or extensively with 100% argon, and illumination was carried out at ambient temperature. Samples were taken through the septum by syringe and injected directly into the HPLC.
(§1) 5-MTHF photodegradation was assayed by HPLC using the following procedure. Samples were taken during light exposure at various times and analyzed by HPLC on a Luna phenyl-hexyl 5 μm (25×0.46 cm) column (Phenomenex) eluted at a flow rate of 1.5 ml/min with ammonium phosphate (20 mM in ammonium), pH 2.8/acetonitrile (17:1) with detection by UV absorbance using Waters 996, photodiode array spectrometer.

Series [2] is described as follows: Reaction with photoexcited pterin-6-carboxylic acid under UVA, depletion of 5-MTHF (HPLC). How it is done:
(§2) UVA and UVB irradiation were carried out under the following conditions. Samples were exposed to UV light at a distance of 30 cm from either a 15 W UVA lamp, Sylvania 350 BL, (lambda max=365 nm, 820 μW/cm2) or 15 W UVB lamp, UVP (lambda max=302 nm, 820 μW/cm2); both purchased from UVP, Inc., USA. The lamps were mounted in a UVP Model XX-15 lamp holder rested on a XX exposure stand.
(§3) To give a solution depth of about 3 mm, 0.5 ml reaction volumes were used in clear 24-well plates. To prevent evaporation during the UVA exposure, samples were covered with MICROAMP™ Optical Adhesive Film (ABI) allowing greater than 80% transmission above 330 nm. […] reactions were covered with a quartz window. All reactions were performed at ambient temperature in 10 mM potassium phosphate pH 7.41 (measured at 10 mM and 21° C.), equilibrated to air, in the presence of 100 μM diethylenetriaminepentaacetic acid in order to prevent the effect of adventitious redox-active metal ions, pre-empt the Fenton reaction and avoid hydroxyl radical-induced damage.
(§4) Reactions with photoexcited pterin-6-carboxylic acid or folic acid were carried out as follows. Samples were exposed in 24-well plates to UVA light in 0.5 ml reaction volumes containing 5-MTHF and folic acid or PCA in the absence or presence of sodium ascorbate in 10 mM potassium phosphate buffer pH 7.42. […]

The conditions of series [3]: cited from earlier work.
Series [4] deals with Rose Bengal-loaded THP-1 cells. Conditions: viable Rose Bengal-loaded THP-1 cells; cited from earlier work.
Series [5] can be described thus: Photodegradation on UVA, UVB or visible light exposure without photosensitizer (HPLC). How it is done:
as §2, §3, §1

The procedure of series [6]:
as §2, §3, §4

The subject of series [7] is Supercoiled plasmid DNA, PBR 322. The series is described as follows: UVA-mediated strand breaks in plasmid DNA, agarose gel electrophoresis. To be noted: for strand-breaks in supercoiled plasmid DNA on UVA exposure / effect on the plasmid in the dark: 50 μM; for strand-breaks in supercoiled plasmid DNA on UVA exposure: UVA for 80 min, FIG. 3; for effect on the plasmid in the dark: incubated 80 min in the dark. How it is done:
as §2, §3
Strand breaks in DNA were detected as follows. Supercoiled plasmid DNA is converted into a nicked circular-form (relaxed) due to single-strand breaks, and subsequently into a linear form due to double-strands breaks. The three forms can be separated by agarose gel electrophoresis. Supercoiled DNA migrates further than the linear form, which in turn migrates further than the relaxed form.
A mixture of 0.1 μg of plasmid DNA, PBR 322, and folic acid, 5-MTHF or PCA in 10 mM potassium phosphate, pH 7.4, was incubated for 80 min under the above UVA-irradiation conditions for a total exposure of 4 J/cm^2. To partially maintain the concentration of 5-MTHF, a 0.25 mM solution was continuously added to the reaction mixture at 1.1 μl/min using a Harvard syringe pump with magnetic stirring.
A sample of 10 μl of the reaction mixture was then subjected to agarose gel electrophoresis after addition of 2 μl of 10× gel loading buffer. Agarose gel for electrophoresis was prepared by dissolving 0.9% agarose in 45 mM Tris-borate buffer (pH 8.3), containing 1 mM EDTA. Electrophoresis was run at 4 V/cm for 1 h. The gel was incubated with 1 μg/ml SYBR Safe stain, and the DNA bands were scanned using Fuji FLA-5000 phosphor-imaging system.

A short description of series [8]: Rate of reaction with singlet oxygen in water. Format: physicochemical. To be noted: inferred from competition with azide.

Entries after “also recorded” stand apart in the source; their conditions may differ. Where only a bound is given, the exact number is not on record here.

`O=C1O[C@H]([C@@H](O)CO)C([O-])=C1O.[Na+]` [ascorbate, sodium ascorbate]: the “rate of loss of 5-MTHF in Rose-Bengal induced photosensitization” value in series [1] (mM levels of sodium ascorbate, high oxygen, FIG. 2C) is given as “decreased”. Besides, the “maintenance of 5-MTHF throughout the reaction” value in series [2] (1 mM ascorbate, 25 μM 5-MTHF, 10 μM PCA, UVA) was “substantially maintained”. Also, in series [3], the “rate constant for the reaction with singlet oxygen in water” value was 8.3e+06 M⁻¹ s⁻¹. The “effect on the generation of protein-derived peroxides” value in series [4] is “no effect”.

As to `CN1c2c(nc(N)[nH]c2=O)NC[C@@H]1CNc1ccc(C(=O)N[C@@H](CCC(=O)[O-])C(=O)O)cc1.CN1c2c(nc(N)[nH]c2=O)NC[C@@H]1CNc1ccc(C(=O)N[C@@H](CCC(=O)[O-])C(=O)O)cc1.[Ca+2]` [5-MTHF, 5-Methyl-6S-tetrahydrofolic acid calcium salt], in series [5] (UVA, UVB or visible light, no photosensitizer, calcium salt), the “stability when illuminated alone” value is recorded as “stable; also recorded: unaffected; also recorded: not photolyzed directly by UV”. Moreover, in series [5] (in 1 hr, same extent as in the absence of light), the “degradation (autooxidation) on exposure to UVA or UVB” value is on record as below 5%. The “5-MTHF concentration that prevented photodegradation of folic acid” value in series [6] (UV exposure) is on record as “below 10 μM”. Also, the “folic acid maintained until 5-MTHF decayed below this concentration” value in series [6] (photolysis of folic acid in the presence of 5-MTHF, FIG. 1) was “below 1 μM”. Besides, the “depletion of 5-MTHF by visible-light sensitized Rose Bengal” value in series [1] (25 μM 5-MTHF, pH 7.4, Rose Bengal, SOD, FIG. 2A) is given as “depleted”. In series [1] (competition reaction, high concentrations of O2, FIG. 2B), the “effectiveness in scavenging singlet oxygen relative to azide” value is on record as “about 20 fold”. In addition, the “time to complete depletion of 5-MTHF” value in series [2] (initial 25 μM 5-MTHF, 50 μM PCA, UVA exposure) is listed as at most 15 min. For the same compound, the “UVA mediated DNA-damage in the presence of folic acid or PCA” value in series [7] (50 μM folic acid or PCA, UVA 80 min, 5-MTHF added continuously, 10 μM falling to 0.25 μM, calcium salt) is given as “inhibited”. Further, the “cleavage of plasmid DNA induced by the compound alone under UV” value in series [7] (5-MTHF alone, UV) was “does not induce cleavage of plasmid DNA”. In addition, the “5-MTHF concentration that prevented strand-breaks in plasmid DNA” value in series [7] (in the presence of photoexcited PCA) was “below 10 μM”. Besides, the “rate of reaction with singlet oxygen” value in series [8] is recorded as “nearly diffusion limited”.

For the compound `Nc1nc2ncc(CNc3ccc(C(=O)N[C@@H](CCC(=O)O)C(=O)O)cc3)nc2c(=O)[nH]1` [folic acid], the “photolysis products on exposure to UVA” value in series [5] (UVA, HPLC, similar results with UVB) is “initially yields, p-aminobenzoylglutamate and 6-FP”. Also, in series [7], the “strand-breaks in supercoiled plasmid DNA on UVA exposure” value is “high percentage of strand-breaks” and the “effect on the plasmid in the dark” value is “no effect”.

Regarding `Nc1nc2ncc(C(=O)O)nc2c(=O)[nH]1` [PCA, pterin-6 carboxylic acid], in series [7], the “strand-breaks in supercoiled plasmid DNA on UVA exposure” value was “high percentage of strand-breaks” and the “effect on the plasmid in the dark” value is reported as “no effect”.

In the case of `[N-]=[N+]=[N-].[Na+]` [azide, Sodium azide], the “decrease of the depletion rate of 5-MTHF” value in series [1] (0.5 mM azide, 100% O2, 10 μM Rose Bengal, FIG. 2B) is “about 50%”. Moreover, the “decrease of the initial rate of depletion of 5-MTHF” value in series [1] (5 mM azide, 100% O2, 10 μM Rose Bengal, FIG. 2B) was “about 80%”. Also, the “protection against UVA mediated DNA-damage” value in series [7] (10 mM sodium azide, same conditions) is given as “full protection”. Moreover, the “rate constant for the reaction with singlet oxygen in water” value in series [3] was 4.5e+08 M⁻¹ s⁻¹.
